According to PMC9000625, “Target Design of Novel Histone Deacetylase 6 Selective Inhibitors with 2-Mercaptoquinazolinone as the Cap Moiety” (Molecules, 2022):
Where “and” joins values, the source holds several entries; their conditions need not be identical. Equal entries are not always repeated. Where two headings read alike, the source gives them in different places. Values belong to the compound of their own block, whether it stands above or below them.

What was measured:
MCF-7 cells = assay: Antiproliferative assay (CELLOMAX viability), MCF-7; format: cell-based, human; conditions: for Emax: MCF7, highest concentration 250 µM, read-out: Imax (%); for Emax / IC50: MCF-7, 48 h; for IC50: read-out: IC50 (µM), antiproliferative activity against MCF-7
Protocol: The MCF-7 cell line was obtained from Korean Cell Line Bank (KCLB, Seoul, Korea). The cells were cultured in vitro in DMEM (Invitrogen, Paisley, UK) containing 10% fetal bovine serum (Gibco, Thermo Fisher Scientific, Waltham, MA, USA) and 1% penicillin. Cells were treated with different concentrations of compounds (1–15) in a 1:3 the highest concentration was 250 µM (before dilution) and further incubated for 48 hrs. […] We evaluated the antiproliferative activity of compound 8 against a variety of cells.
The MCF-7 cell line was obtained from ATCC. The cells were cultured in vitro in DMEM (Invitrogen, Paisley, UK) containing 10% fetal bovine serum (Gibco, Thermo Fisher Scientific, Waltham, MA) and 1% penicillin. For cytotoxicity assays, MCF-7 cells were seeded into 96-well culture plates at […] in 0.1 mL of DMEM and incubated at 37 °C with 5% CO2 and 90% humidity. After 16 h, the cells were treated with drugs (250 μM, serially diluted up to three-fold) for 48 h. Cell viability was measured using the CELLOMAXTM Viability Assay kit (Precaregene Co., Seoul, Korea). UV absorption at 450 nm wavelength was measured using an Infinite M200 microplate reader (Tecan, Zürich, Switzerland). The IC50 values were calculated using Prism v7.0 (GraphPad Software Inc., La Jolla, CA). The inhibitory activity of the tested compounds was evaluated by an 8-point dose–response curve (DRC) analysis in triplicates.

HDAC4 = target: T1, HDAC4 (Homo sapiens, UniProt P56524); assay: HDAC enzyme inhibition assay, HDAC4; format: biochemical; conditions: read-out: IC50 (µM) HDAC4 (Class IIa)
T1 construct: purchased PBS Biosciences [sic]
T1 sequence (P56524 whole entry): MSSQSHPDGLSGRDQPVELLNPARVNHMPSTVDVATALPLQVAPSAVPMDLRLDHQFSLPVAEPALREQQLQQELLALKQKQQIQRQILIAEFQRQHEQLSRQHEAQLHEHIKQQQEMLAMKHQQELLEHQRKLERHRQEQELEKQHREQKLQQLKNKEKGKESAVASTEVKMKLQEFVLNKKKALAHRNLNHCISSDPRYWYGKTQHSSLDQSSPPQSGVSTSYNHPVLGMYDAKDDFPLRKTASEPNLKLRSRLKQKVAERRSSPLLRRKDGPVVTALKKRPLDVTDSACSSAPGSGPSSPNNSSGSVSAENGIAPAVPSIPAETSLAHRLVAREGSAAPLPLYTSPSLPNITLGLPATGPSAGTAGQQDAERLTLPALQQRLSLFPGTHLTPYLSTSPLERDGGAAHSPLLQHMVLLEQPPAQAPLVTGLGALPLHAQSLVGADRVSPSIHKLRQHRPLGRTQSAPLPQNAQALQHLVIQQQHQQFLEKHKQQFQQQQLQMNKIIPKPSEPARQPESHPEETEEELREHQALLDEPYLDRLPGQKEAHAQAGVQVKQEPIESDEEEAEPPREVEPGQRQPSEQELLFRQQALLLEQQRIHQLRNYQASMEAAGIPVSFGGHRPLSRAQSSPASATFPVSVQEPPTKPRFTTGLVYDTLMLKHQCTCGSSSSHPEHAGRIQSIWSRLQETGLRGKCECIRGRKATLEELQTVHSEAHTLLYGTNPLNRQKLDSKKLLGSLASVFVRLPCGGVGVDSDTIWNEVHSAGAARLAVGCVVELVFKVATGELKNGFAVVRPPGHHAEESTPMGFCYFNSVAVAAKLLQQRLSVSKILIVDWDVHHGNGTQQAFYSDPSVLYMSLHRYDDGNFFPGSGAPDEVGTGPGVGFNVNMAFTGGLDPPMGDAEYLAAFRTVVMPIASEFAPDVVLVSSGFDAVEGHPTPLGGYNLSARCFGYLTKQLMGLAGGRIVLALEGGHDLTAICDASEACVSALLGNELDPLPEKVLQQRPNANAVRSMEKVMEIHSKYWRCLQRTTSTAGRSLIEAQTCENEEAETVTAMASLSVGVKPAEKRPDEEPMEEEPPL

HDAC6 = target: T2, HDAC6 (Homo sapiens, UniProt Q9UBN7); assay: HDAC enzyme inhibition assay, HDAC6; format: biochemical
T2 construct: purchased PBS Biosciences [sic]
T2 sequence (Q9UBN7 1-1215): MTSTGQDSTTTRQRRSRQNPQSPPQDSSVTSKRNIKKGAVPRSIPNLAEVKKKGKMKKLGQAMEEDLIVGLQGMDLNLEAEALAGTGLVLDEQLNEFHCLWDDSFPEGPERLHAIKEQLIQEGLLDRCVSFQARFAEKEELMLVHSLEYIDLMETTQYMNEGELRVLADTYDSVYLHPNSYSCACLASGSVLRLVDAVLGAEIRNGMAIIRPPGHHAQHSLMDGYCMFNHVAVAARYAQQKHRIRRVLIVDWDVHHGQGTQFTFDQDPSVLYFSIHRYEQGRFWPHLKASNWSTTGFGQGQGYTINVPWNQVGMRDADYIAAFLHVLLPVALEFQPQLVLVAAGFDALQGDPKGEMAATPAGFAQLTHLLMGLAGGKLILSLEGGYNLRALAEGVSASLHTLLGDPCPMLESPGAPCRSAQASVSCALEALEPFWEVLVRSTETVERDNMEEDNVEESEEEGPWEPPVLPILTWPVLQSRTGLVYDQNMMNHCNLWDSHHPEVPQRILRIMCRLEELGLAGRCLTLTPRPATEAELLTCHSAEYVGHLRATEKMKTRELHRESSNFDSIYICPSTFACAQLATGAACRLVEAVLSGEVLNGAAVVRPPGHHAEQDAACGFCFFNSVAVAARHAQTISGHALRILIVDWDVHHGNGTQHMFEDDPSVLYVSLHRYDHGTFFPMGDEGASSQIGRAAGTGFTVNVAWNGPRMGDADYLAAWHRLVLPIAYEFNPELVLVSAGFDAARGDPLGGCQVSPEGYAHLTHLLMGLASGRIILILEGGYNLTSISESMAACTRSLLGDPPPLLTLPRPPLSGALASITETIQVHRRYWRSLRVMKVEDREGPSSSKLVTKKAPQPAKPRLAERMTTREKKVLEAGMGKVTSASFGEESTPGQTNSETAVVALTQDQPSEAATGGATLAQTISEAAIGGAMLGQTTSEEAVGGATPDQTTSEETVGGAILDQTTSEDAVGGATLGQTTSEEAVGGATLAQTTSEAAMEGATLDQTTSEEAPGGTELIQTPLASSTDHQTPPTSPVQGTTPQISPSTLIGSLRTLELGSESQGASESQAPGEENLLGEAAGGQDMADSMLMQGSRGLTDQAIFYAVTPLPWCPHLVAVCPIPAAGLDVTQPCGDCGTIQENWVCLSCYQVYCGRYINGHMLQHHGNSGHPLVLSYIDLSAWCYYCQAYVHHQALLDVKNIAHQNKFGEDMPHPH
Protocol: (§1) The compounds were diluted to the indicated concentrations and mixed with HDAC enzymes (HDAC1, HDAC3, HDAC6, HDAC8, HDAC11) and the substrate for 1 h (PBS Biosciences). The fluorescence intensity was measured according to the manufacturer’s instructions.

MDA-MB 231 cells = assay: Antiproliferation, MDA-MB 231; format: cell-based; conditions: Homo sapiens, Breast
EMT 6 cells = assay: Antiproliferation, EMT 6; format: cell-based; conditions: Mus musculus, EMT6; Breast
N2A cells = assay: Antiproliferation, N2A; format: cell-based; conditions: Mus musculus, Brain
Hepa1c1c7 cells = assay: Antiproliferation, Hepa1c1c7; format: cell-based; conditions: Hepa-1c1c7; Liver
SKOV3 cells = assay: Antiproliferation, SKOV3; format: cell-based; conditions: Homo sapiens, SK-OV-3; Ovarian
SW620 cells = assay: Antiproliferation, SW620; format: cell-based; conditions: Homo sapiens, SW-620; Colon
PANC1 cells = assay: Antiproliferation, PANC1; format: cell-based; conditions: Homo sapiens, PANC-1; Pancreas
HDAC3 = target: T3, HDAC3 (Homo sapiens, UniProt O15379); assay: HDAC enzyme inhibition assay, HDAC3; format: biochemical; conditions: read-out: IC50 (µM) HDAC3 (Class I)
T3 construct: purchased PBS Biosciences [sic]
T3 sequence (O15379 whole entry): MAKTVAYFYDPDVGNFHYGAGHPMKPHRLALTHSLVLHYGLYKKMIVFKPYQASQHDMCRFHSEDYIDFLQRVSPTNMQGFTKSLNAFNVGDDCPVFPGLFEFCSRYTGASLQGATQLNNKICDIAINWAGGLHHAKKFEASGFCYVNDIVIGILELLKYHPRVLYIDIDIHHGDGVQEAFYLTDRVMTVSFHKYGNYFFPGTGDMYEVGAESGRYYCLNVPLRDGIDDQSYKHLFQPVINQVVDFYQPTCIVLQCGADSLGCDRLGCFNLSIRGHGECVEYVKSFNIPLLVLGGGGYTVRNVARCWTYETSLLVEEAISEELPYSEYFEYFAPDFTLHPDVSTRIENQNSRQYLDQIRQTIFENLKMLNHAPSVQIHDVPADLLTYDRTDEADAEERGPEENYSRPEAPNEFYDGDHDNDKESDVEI
T3 sequence (Q9Y618 395-489 partner limits assumed): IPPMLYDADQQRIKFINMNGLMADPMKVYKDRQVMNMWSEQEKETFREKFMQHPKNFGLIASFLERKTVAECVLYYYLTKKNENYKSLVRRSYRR
Protocol: as §1

HDAC8 = target: T4, HDAC8 (Homo sapiens, UniProt Q9BY41); assay: HDAC enzyme inhibition assay, HDAC8; format: biochemical; conditions: read-out: IC50 (µM) HDAC8 (Class I)
T4 construct: purchased PBS Biosciences [sic]
T4 sequence (Q9BY41 1-377): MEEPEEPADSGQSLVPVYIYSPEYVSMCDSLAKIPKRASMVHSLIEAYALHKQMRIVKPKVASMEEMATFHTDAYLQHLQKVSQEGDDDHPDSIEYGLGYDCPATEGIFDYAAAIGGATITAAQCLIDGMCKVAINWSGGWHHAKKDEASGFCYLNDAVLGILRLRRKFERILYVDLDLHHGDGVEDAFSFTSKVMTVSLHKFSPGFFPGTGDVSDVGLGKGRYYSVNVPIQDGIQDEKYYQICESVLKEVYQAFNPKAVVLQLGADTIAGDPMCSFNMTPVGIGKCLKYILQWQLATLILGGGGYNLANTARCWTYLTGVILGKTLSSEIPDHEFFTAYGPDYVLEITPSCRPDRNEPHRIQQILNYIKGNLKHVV
Protocol: as §1

HDAC11 = target: T5, HDAC11 (Homo sapiens, UniProt Q96DB2); assay: HDAC enzyme inhibition assay, HDAC11; format: biochemical
T5 construct: purchased PBS Biosciences [sic]
T5 sequence (Q96DB2 1-347): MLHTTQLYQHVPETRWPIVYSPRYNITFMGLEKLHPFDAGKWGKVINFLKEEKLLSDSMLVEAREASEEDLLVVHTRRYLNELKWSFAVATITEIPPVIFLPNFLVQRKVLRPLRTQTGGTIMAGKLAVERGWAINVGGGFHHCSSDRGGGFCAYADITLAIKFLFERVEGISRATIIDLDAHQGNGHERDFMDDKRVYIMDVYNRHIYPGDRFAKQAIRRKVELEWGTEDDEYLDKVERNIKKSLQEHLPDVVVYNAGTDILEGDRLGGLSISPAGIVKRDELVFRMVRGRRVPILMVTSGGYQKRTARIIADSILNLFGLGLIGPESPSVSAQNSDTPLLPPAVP
Protocol: as §1

[1] = test system: acetylated tubulin (HDAC6 substrate) in MCF-7 cells; assay: Western blot of acetylated tubulin in MCF-7; format: cell-based, human
Protocol: (§2) MCF-7 and N2a cell lines were incubated with various concentrations of test agents for 6 h. Cell lysis and Western blot analyses were performed as previously described. Anti-acetylated tubulin antibody and horseradish peroxidase (HRP)-conjugated secondary antibodies (Santa Cruz Biotechnology) were used. Immunoreactive bands were visualized using enhanced chemiluminescence (Millipore, Burlington, MA, USA).
(§3) GAPDH was used as a loading control.

[2] = test system: acetylated tubulin (HDAC6 substrate) in N2a cells; assay: Western blot of acetylated tubulin in N2a; format: cell-based; conditions: 6 h, 10, 2, and 0.2 µM
Protocol: as §2, §3

melting point: 120 to 122 °C
Structure (SMILES): O=C(CN1CCN(CCn2c(-c3ccc(F)cc3)nc3ccccc3c2=O)CC1)NO [Compound 11]

melting point: 195 to 197 °C
Structure (SMILES): O=C(CCCCn1c(-c2ccco2)nc2ccccc2c1=O)NO [Compound 15]
Emax (MCF-7 cells; Homo sapiens): 1.5%

IC50 (MCF-7 cells; Homo sapiens, MCF7, 48 h): 14.2 ± 1.14 µM
melting point: 180 to 182 °C
Structure (SMILES): O=C(CCCCSc1nc2ccccc2c(=O)n1Cc1ccc(-c2ccccc2)cc1)NO [Compound 10]
Emax (MCF-7 cells; Homo sapiens): 89.7%

melting point: 176 to 179 °C
Structure (SMILES): O=C(CSc1nc2ccccc2c(=O)n1Cc1ccccc1[N+](=O)[O-])NO [Compound 5]
Emax (MCF-7 cells; Homo sapiens): 17%

melting point: 184 to 186 °C
Structure (SMILES): O=C(CSc1nc2ccccc2c(=O)n1Cc1ccc(F)c(F)c1)NO [Compound 4]
Emax (MCF-7 cells; Homo sapiens): 23%

IC50 (MCF-7 cells; Homo sapiens, MCF7, 48 h): 3.4 µM
IC50 (MCF-7 cells): 3.44 ± 1.11 µM
IC50 (HDAC3): 2.7 ± 0.08 µM
IC50 (HDAC8): 0.8 ± 0.01 µM
IC50 (HDAC4): > 10 µM
Selective Fold (Ratio) HDAC3/ HDAC6 (HDAC6; ratio of IC50): 7.9 fold and 7.94 fold
Selective Fold (Ratio) HDAC4/ HDAC6 (HDAC6; ratio of IC50): >29.4 fold
Selective Fold (Ratio) HDAC8/ HDAC6 (HDAC6; ratio of IC50): 2.3 fold and 2.32 fold
Selective Fold (Ratio) HDAC11/ HDAC6 (HDAC6; ratio of IC50): >29.4 fold
IC50 (HDAC6; read-out: IC50 (µM) HDAC6 (Class IIb)): 2.3 µM and 0.3 µM
IC50 (HDAC11; read-out: IC50 (µM) HDAC11 (Class IV)): ~3 µM
IC50 (MDA-MB 231 cells): 0.51 ± 0.02 µM
IC50 (SKOV3 cells): 4.5 ± 0.1 µM
IC50 (SW620 cells): 0.81 ± 0.01 µM
IC50 (PANC1 cells): 12.8 ± 0.75 µM
melting point: 138 to 140 °C
Structure (SMILES): O=C(CCCCSc1nc2ccccc2c(=O)n1Cc1ccc(F)cc1)NO [Compound 8]
Emax (MCF-7 cells; Homo sapiens): 90.6%
HDAC11 inhibition compared to Belinostat (in words) (HDAC11; dose-dependent): higher activity against HDAC11 compared to the reference
acetylation level of tubulin (Western blot) at 10 µM ([1]; 10 µM, cell line not named): increased acetylation level of tubulin
acetylation of tubulin (Western blot) ([1]; MCF-7, 6 h, 10, 2, and 0.2 µM): induced acetylated tubulin levels in a dose-dependent manner
acetylation of tubulin (Western blot) [2]: induced acetylated tubulin levels in a dose-dependent manner
IC50 (EMT 6 cells): 1.3 ± 0.3 µM
IC50 (N2A cells): 3.2 ± 0.1 µM
IC50 (Hepa1c1c7 cells): 1.3 ± 0.2 µM

IC50 (MCF-7 cells; Homo sapiens, MCF7, 48 h): 37.3 ± 1.21 µM
melting point: 173 to 175 °C
Structure (SMILES): COc1ccc(-c2nc3ccccc3c(=O)n2CCCCC(=O)NO)cc1 [Compound 13]
Emax (MCF-7 cells; Homo sapiens): 95.8%

Second part, the compound before the results:

Structure (SMILES): O=C(/C=C/c1cccc(S(=O)(=O)Nc2ccccc2)c1)NO [Belinostat, reference compound]
IC50 (MCF-7 cells; Homo sapiens, MCF7, 48 h): 2.6 ± 1.4 µM
Emax (MCF-7 cells; Homo sapiens): 100%
IC50 (HDAC4): 2.7 ± 0.12 µM
IC50 (HDAC6; IC50 (µM) HDAC6 (Class IIb)): 0.2 ± 0.01 µM
IC50 (MDA-MB 231 cells): 3.72 ± 0.5 µM
IC50 (EMT 6 cells): 11.3 ± 2.6 µM
IC50 (N2A cells): 3.66 ± 0.7 µM
IC50 (Hepa1c1c7 cells): 10.1 ± 0.9 µM
IC50 (SKOV3 cells): 32.1 ± 5.5 µM
IC50 (SW620 cells): 14.9 ± 1.2 µM
IC50 (PANC1 cells): 15.7 ± 2.3 µM

Structure (SMILES): Cc1ccc(Cn2c(SCC(=O)NO)nc3ccccc3c2=O)cc1 [Compound 6]
Emax (MCF-7 cells; Homo sapiens): 22%
melting point: 184 to 186 °C

Structure (SMILES): O=C(CCCCSc1nc2ccccc2c(=O)n1Cc1cccc(F)c1)NO [Compound 9]
IC50 (MCF-7 cells; Homo sapiens, MCF7, 48 h): 36.9 ± 1.12 µM
Emax (MCF-7 cells; Homo sapiens): 96.8%
antiproliferative activity (in words) (MCF-7 cells; MCF-7): loss of activity
melting point: 145 to 147 °C

Structure (SMILES): O=C(CSc1nc2ccccc2c(=O)n1Cc1cccc(F)c1)NO [Compound 3]
Emax (MCF-7 cells; Homo sapiens): 24%
melting point: 177 to 180 °C

Structure (SMILES): O=C(CSc1nc2ccccc2c(=O)n1Cc1ccccc1)NO [Compound 1]
Emax (MCF-7 cells; Homo sapiens): 20%
melting point: 188 to 191 °C

Structure (SMILES): O=C(CSc1nc2ccccc2c(=O)n1Cc1ccc(F)cc1)NO [Compound 2]
Emax (MCF-7 cells; Homo sapiens): 11%

Structure (SMILES): O=C(CCCCn1c(-c2ccc(F)cc2)nc2ccccc2c1=O)NO [Compound 14]
IC50 (MCF-7 cells; Homo sapiens, MCF7, 48 h): 37.9 ± 1.71 µM
Emax (MCF-7 cells; Homo sapiens): 100%
melting point: 156 to 158 °C
